Read-outs that look alike come from different tables or passages of the source.
Columns and labels:
[1] = test system: P. falciparum 3D7 parasites; assay: P. falciparum growth inhibition assay, 1-cycle (72 h treatment), SYBR DNA staining (library screen at 2 μg/mL and dose-response); type: cell-based, Plasmodium falciparum; conditions: for activity at 2 µg/mL: Plasmodium falciparum
[2] = test system: P. falciparum 3D7 parasites; assay: P. falciparum growth inhibition assay, 2-cycle (120 h treatment), delayed-death screen and dose-response; type: cell-based, Plasmodium falciparum; conditions: for activity at 2 µg/mL: Plasmodium falciparum
[3] = test system: T. gondii RH strain (RH-Tub-eYFP) tachyzoites; assay: microbe, parasite or virus in culture; type: cell-based, Toxoplasma gondii; conditions: for percent parasite growth at 2 µg/mL: Toxoplasma gondii
[4] = 3D7, 72 h, P. falciparum, 72 h, screen at 2 μg/mL, replicate 1, read-out: Pf_72h_%Growth_Rep1
[5] = 3D7, 72 h, P. falciparum, 72 h, screen at 2 μg/mL, replicate 2, read-out: Pf_72h_%Growth_Rep2
[6] = 3D7, 120 h, P. falciparum, 120 h, screen at 2 μg/mL, replicate 1, read-out: Pf_120h_%Growth_Rep1
[7] = 3D7, 120 h, P. falciparum, 120 h, screen at 2 μg/mL, replicate 2, read-out: Pf_120h_%Growth_Rep2
[8] = 72 h, T. gondii, 72 h, screen at 2 μg/mL, replicate 1, read-out: Tg_72h_%Growth_Rep1
[9] = 72 h, T. gondii, 72 h, screen at 2 μg/mL, replicate 2, read-out: Tg_72h_%Growth_Rep2
[10] = 3D7, P. falciparum, 72 h, parasite screen 2 μg/mL, % growth, replicate 1, read-out: Pf_72h_%Growth_Rep1
[11] = 3D7, P. falciparum, 72 h, parasite screen 2 μg/mL, % growth, replicate 2, read-out: Pf_72h_%Growth_Rep2
[12] = 3D7, P. falciparum, 120 h, parasite screen 2 μg/mL, % growth, replicate 1, read-out: Pf_120h_%Growth_Rep1
[13] = 3D7, P. falciparum, 120 h, parasite screen 2 μg/mL, % growth, replicate 2, read-out: Pf_120h_%Growth_Rep2
[14] = 72 h, T. gondii, 72 h, parasite screen 2 μg/mL, % growth, replicate 1, read-out: Tg_72h_%Growth_Rep1
[15] = 72 h, T. gondii, 72 h, parasite screen 2 μg/mL, % growth, replicate 2, read-out: Tg_72h_%Growth_Rep2
[16] = library screen at 2 μg/mL, 72 h, % growth, replicate 1
[17] = library screen at 2 μg/mL, 72 h, % growth, replicate 2
[18] = library screen at 2 μg/mL, 120 h, % growth, replicate 1
[19] = library screen at 2 μg/mL, 120 h, % growth, replicate 2
[20] = P. falciparum, 72 h, screen at 2 μg/mL, replicate 1
[21] = P. falciparum, 72 h, screen at 2 μg/mL, replicate 2
[22] = P. falciparum, 120 h, screen at 2 μg/mL, replicate 1
[23] = P. falciparum, 120 h, screen at 2 μg/mL, replicate 2
[24] = T. gondii, 72 h, screen at 2 μg/mL, replicate 1
[25] = T. gondii, 72 h, screen at 2 μg/mL, replicate 2
[26] = P. falciparum 3D7, 72 h, parasite screen at 2 μg/mL, % growth, replicate 1
[27] = P. falciparum 3D7, 72 h, parasite screen at 2 μg/mL, % growth, replicate 2
[28] = P. falciparum 3D7, 120 h, parasite screen at 2 μg/mL, % growth, replicate 1
[29] = P. falciparum 3D7, 120 h, parasite screen at 2 μg/mL, % growth, replicate 2
[30] = T. gondii, 72 h, parasite screen at 2 μg/mL, % growth, replicate 1
[31] = T. gondii, 72 h, parasite screen at 2 μg/mL, % growth, replicate 2
[32] = 3D7, P. falciparum, 72 h, screen at 2 μg/mL, replicate 1, read-out: Pf_72h_%Growth_Rep1
[33] = 3D7, P. falciparum, 72 h, screen at 2 μg/mL, replicate 2, read-out: Pf_72h_%Growth_Rep2
[34] = 3D7, P. falciparum, 120 h, screen at 2 μg/mL, replicate 1, read-out: Pf_120h_%Growth_Rep1
[35] = 3D7, P. falciparum, 120 h, screen at 2 μg/mL, replicate 2, read-out: Pf_120h_%Growth_Rep2

SMILES: CO[C@@H]1[C@H](O)C[C@@H](O[C@@H]2C[C@H](Oc3cc4cc5c(c(O)c4c(O)c3C)C(=O)[C@@H](O[C@H]3C[C@@H](O[C@H]4C[C@@H](O[C@H]6C[C@](C)(O)[C@@H](OC(C)=O)[C@H](C)O6)[C@H](O)[C@@H](C)O4)[C@H](O)[C@@H](C)O3)[C@H]([C@H](OC)C(=O)[C@@H](O)[C@@H](C)O)C5)O[C@H](C)[C@@H]2OC(C)=O)O[C@@H]1C [Chromomycin A3]
- activity at 2 µg/mL [1, 4]: -1.98%
- activity at 2 µg/mL [1, 5]: 0.17%
- activity at 2 µg/mL [2, 6]: 2.76%
- activity at 2 µg/mL [2, 7]: -4.9%
- percent parasite growth at 2 µg/mL [3, 8]: 1.51%
- percent parasite growth at 2 µg/mL [3, 9]: 1.99%

SMILES: C/C(=C\C(=O)OCCCCCCCCC(=O)O)C[C@@H]1OC[C@H](C[C@@H]2O[C@H]2[C@@H](C)[C@H](C)O)[C@@H](O)[C@H]1O [Pseudomonic acid]
- activity at 2 µg/mL [1, 10]: 29.1%
- activity at 2 µg/mL [1, 11]: 6.31%
- activity at 2 µg/mL [2, 12]: 0.62%
- activity at 2 µg/mL [2, 13]: 28.1%
- percent parasite growth at 2 µg/mL [3, 14]: 70.8%
- percent parasite growth at 2 µg/mL [3, 15]: 74.5%

SMILES: C[C@H]1OC(=O)C=C[C@@H](O)[C@@H](O)CCCCCCCC[C@@H]1O [Berkeleylactone F]
- Pf_72h_%Growth_Rep1 [1, 16]: 78.45%
- Pf_72h_%Growth_Rep2 [1, 17]: 83.14%
- Pf_120h_%Growth_Rep1 [2, 18]: 146.18%
- Pf_120h_%Growth_Rep2 [2, 19]: 96.20%
- Tg_72h_%Growth_Rep1 [3, 16]: 83.11%
- Tg_72h_%Growth_Rep2 [3, 17]: 88.17%

SMILES: CC(C)[C@@H]1NC(=O)[C@@H]2CCCN2C1=O [Cyclo(L-Pro-L-Val)]
- Pf_72h_%Growth_Rep1 [1, 20]: 85.07%
- Pf_72h_%Growth_Rep2 [1, 21]: 82.22%
- Pf_120h_%Growth_Rep1 [2, 22]: 101.90%
- Pf_120h_%Growth_Rep2 [2, 23]: 92.75%
- Tg_72h_%Growth_Rep1 [3, 24]: 147.92%
- Tg_72h_%Growth_Rep2 [3, 25]: 100.59%

SMILES: CCOC(=O)[C@H](Cc1ccccc1)NC(=O)c1cc(Cl)c2c(c1O)C(=O)O[C@H](C)C2 [BIA-O1589]
- Pf_72h_%Growth_Rep1 [1, 26]: 85.35%
- Pf_72h_%Growth_Rep2 [1, 27]: 104.78%
- Pf_120h_%Growth_Rep1 [2, 28]: 89.48%
- Pf_120h_%Growth_Rep2 [2, 29]: 144.99%
- Tg_72h_%Growth_Rep1 [3, 30]: 74.06%
- Tg_72h_%Growth_Rep2 [3, 31]: 66.00%

SMILES: CC[C@H](C)[C@H]1O[C@]2(C=C[C@@H]1C)C[C@@H]1C[C@@H](C/C=C(\C)[C@@H](O)[C@@H](C)/C=C/C=C3\CO[C@@H]4[C@H](O)C(C)=C[C@@H](C(=O)O1)[C@]34O)O2 [Avermectin B1a aglycone]
- Pf_72h_%Growth_Rep1 [1, 16]: 81.70%
- Pf_72h_%Growth_Rep2 [1, 17]: 78.59%
- Pf_120h_%Growth_Rep1 [2, 18]: 81.78%
- Pf_120h_%Growth_Rep2 [2, 19]: 74.45%
- Tg_72h_%Growth_Rep1 [3, 16]: 137.71%
- Tg_72h_%Growth_Rep2 [3, 17]: 97.71%

SMILES: CN(C)[C@@H]1C(O)=C(C(N)=O)C(=O)[C@@]2(O)C(O)=C3C(=O)c4c(O)ccc(Cl)c4[C@@](C)(O)[C@H]3C[C@@H]12 [Chlortetracycline]
- activity at 2 µg/mL [1, 4]: 97.7%
- activity at 2 µg/mL [1, 5]: 90.6%
- activity at 2 µg/mL [2, 6]: 149%
- activity at 2 µg/mL [2, 7]: 97.7%
- percent parasite growth at 2 µg/mL [3, 8]: 102%
- percent parasite growth at 2 µg/mL [3, 9]: 83.5%

SMILES: CC(=O)c1c(O)c(C)c(O)c2c1OC1=CC(=O)C(C(C)=O)C(=O)C12C (stereo not drawn) [Usnic acid]
- activity at 2 µg/mL [1, 32]: 82.8%
- activity at 2 µg/mL [1, 33]: 126%
- activity at 2 µg/mL [2, 34]: 101%
- activity at 2 µg/mL [2, 35]: 102%
- percent parasite growth at 2 µg/mL [3, 8]: 115%
- percent parasite growth at 2 µg/mL [3, 9]: 87.6%

SMILES: COc1cc2c(c3oc(=O)c4c(c13)CCC4=O)[C@@H]1CCO[C@@H]1O2 [Aflatoxin B2]
- Pf_72h_%Growth_Rep1 [1]: 82.21%
- Pf_72h_%Growth_Rep2 [1]: 80.10%
- Pf_120h_%Growth_Rep1 [2]: 93.01%
- Pf_120h_%Growth_Rep2 [2]: 84.17%
- Tg_72h_%Growth_Rep1 [3]: 112.94%
- Tg_72h_%Growth_Rep2 [3]: 92.34%

SMILES: C=C1[C@@H](C)[C@H]2[C@H](Cc3ccccc3)NC(=O)[C@]23OC(=O)/C=C/C(=O)CCC[C@@H](C)C/C=C/[C@H]3[C@@H]1O [Cytochalasin A]
- Pf_72h_%Growth_Rep1 [1, 20]: 14.20%
- Pf_72h_%Growth_Rep2 [1, 21]: 12.98%
- Pf_120h_%Growth_Rep1 [2, 22]: 0.48%
- Pf_120h_%Growth_Rep2 [2, 23]: 6.78%
- Tg_72h_%Growth_Rep1 [3, 24]: 2.84%
- Tg_72h_%Growth_Rep2 [3, 25]: 2.30%

SMILES: CCO[C@@H]1[C@@H](OC)[C@H](C)O[C@@H](O[C@H]2C[C@H]3[C@@H]4C=C5C(=O)[C@H](C)[C@@H](O)CCC[C@H](CC)OC(=O)C[C@H]5[C@@H]4C=C(C)[C@@H]3C2)[C@@H]1OC [spinosyn L 17-pseudoaglycone, 3'-Ethoxy-]
- Pf_72h_%Growth_Rep1 ([1]; P. falciparum, 72 h, parasite screen 2 μg/mL, % growth, replicate 1): 17.82%
- Pf_72h_%Growth_Rep2 ([1]; P. falciparum, 72 h, parasite screen 2 μg/mL, % growth, replicate 2): 8.15%
- Pf_120h_%Growth_Rep1 ([2]; P. falciparum, 120 h, parasite screen 2 μg/mL, % growth, replicate 1): 6.02%
- Pf_120h_%Growth_Rep2 ([2]; P. falciparum, 120 h, parasite screen 2 μg/mL, % growth, replicate 2): 1.27%
- Tg_72h_%Growth_Rep1 ([3]; T. gondii, 72 h, parasite screen 2 μg/mL, % growth, replicate 1): 97.87%
- Tg_72h_%Growth_Rep2 ([3]; T. gondii, 72 h, parasite screen 2 μg/mL, % growth, replicate 2): 88.47%

SMILES: CC(=O)O.CC(=O)O.CC[C@H](C)C[C@H](C)CCCCCCCCC(=O)N[C@H]1C[C@@H](O)[C@@H](NCCN)NC(=O)[C@@H]2[C@@H](O)CCN2C(=O)[C@H]([C@H](O)CCN)NC(=O)[C@H]([C@H](O)[C@@H](O)c2ccc(O)cc2)NC(=O)[C@@H]2C[C@@H](O)CN2C(=O)[C@H]([C@@H](C)O)NC1=O [Caspofungin acetate]
- Pf_72h_%Growth_Rep1 [1, 20]: 37.83%
- Pf_72h_%Growth_Rep2 [1, 21]: 84.89%
- Pf_120h_%Growth_Rep1 [2, 22]: 148.27%
- Pf_120h_%Growth_Rep2 [2, 23]: 78.66%
- Tg_72h_%Growth_Rep1 [3, 24]: 95.80%
- Tg_72h_%Growth_Rep2 [3, 25]: 93.96%

SMILES: CN(C)[C@@H]1C(O)=C(C(=O)NCN2CCCC2)C(=O)[C@@]2(O)C(O)=C3C(=O)c4c(O)cccc4[C@@](C)(O)[C@H]3C[C@@H]12 [Rolitetracycline]
- activity at 2 µg/mL [1, 10]: 87.6%
- activity at 2 µg/mL [1, 11]: 70%
- activity at 2 µg/mL [2, 12]: 82.2%
- activity at 2 µg/mL [2, 13]: 135%
- percent parasite growth at 2 µg/mL [3, 14]: 105%
- percent parasite growth at 2 µg/mL [3, 15]: 84.7%

SMILES: O=C1N[C@@H](Cc2c[nH]c3ccccc23)C(=O)N2CCC[C@@H]12 [Brevianamide F]
- activity at 2 µg/mL [1, 32]: 103%
- activity at 2 µg/mL [1, 33]: 84.4%
- activity at 2 µg/mL [2, 34]: 148%
- activity at 2 µg/mL [2, 35]: 91%
- percent parasite growth at 2 µg/mL [3, 8]: 83.3%
- percent parasite growth at 2 µg/mL [3, 9]: 92%

SMILES: CC(C)Cc1cnc(C(O)C(C)C)c(=O)n1O (stereo not drawn) [BIA-N1641]
- Pf_72h_%Growth_Rep1 [1, 26]: 83.86%
- Pf_72h_%Growth_Rep2 [1, 27]: 85.70%
- Pf_120h_%Growth_Rep1 [2, 28]: 89.64%
- Pf_120h_%Growth_Rep2 [2, 29]: 132.16%
- Tg_72h_%Growth_Rep1 [3, 30]: 143.25%
- Tg_72h_%Growth_Rep2 [3, 31]: 85.15%
